Laboratory results published in publication PMC10671431, “New Derivatives of N-Hydroxybutanamide: Preparation, MMP Inhibition, Cytotoxicity, and Antitumor Activity” (International Journal of Molecular Sciences, 2023).

Experiments:
[1] = tested on: CAC-1 cells (human cervical adenocarcinoma); set-up: method as in PMID 11925127; conditions: 72 h of exposure, cited from earlier work
[2] = tested on: hamster pancreatic cancer cell line PGHAM-1; set-up: method as in PMID 11291083; conditions: 72 h of exposure, cited from earlier work
MMP-14 = target: T1, MMP-14 (Homo sapiens, UniProt P50281); test: MMP activity assay, fluorogenic substrate (MMP Inhibitor Profiling Kit); type: biochemical; conditions: read-out: MMP-inhibiting activity IC50, MMP-14
T1 construct: the BML- prefix points to Enzo Life Sciences, own knowledge BML-AK308
Description: (§1) Determination of MMP activity. A fluorescently labeled substrate probe containing a fluorescent label and a fluorescence quencher, was utilized for this study. […] Enzyme activity was assessed using the MMP Inhibitor Profiling Kit (Product # BML-AK308, New York, NY, USA) according to the manufacturer’s recommendations. The nonspecific inhibitor NNGH was used as a positive control. The fluorescence of the fluorogenic substrate OmniMMP^TM RED was measured at wavelengths Ex/Em = 545/576 nm using a Spark 10M multimode plate reader (Tecan, Zurich, Switzerland). Reaction rates were expressed in relative fluorescence units (RFUs) per minute. The activity of MMPs in the presence of the studied compounds was determined as follows:Activity, % = (Vinh/Vcont) × 100,(1) where V is the initial reaction rate (RFUs/min) in the presence (Vinh) and absence (Vcont) of the studied compounds.
(§2) All tested compounds were dissolved in DMSO. The final concentration of DMSO in all samples was 0.1%. Control samples were treated with 0.1% DMSO.

MMP-2 = target: T2, MMP-2 (Homo sapiens, UniProt P08253); test: as above; type: biochemical; conditions: read-out: MMP-inhibiting activity IC50, MMP-2
T2 construct: the BML- prefix points to Enzo Life Sciences, own knowledge BML-AK308
T2 sequence (P08253 110-446 limits assumed): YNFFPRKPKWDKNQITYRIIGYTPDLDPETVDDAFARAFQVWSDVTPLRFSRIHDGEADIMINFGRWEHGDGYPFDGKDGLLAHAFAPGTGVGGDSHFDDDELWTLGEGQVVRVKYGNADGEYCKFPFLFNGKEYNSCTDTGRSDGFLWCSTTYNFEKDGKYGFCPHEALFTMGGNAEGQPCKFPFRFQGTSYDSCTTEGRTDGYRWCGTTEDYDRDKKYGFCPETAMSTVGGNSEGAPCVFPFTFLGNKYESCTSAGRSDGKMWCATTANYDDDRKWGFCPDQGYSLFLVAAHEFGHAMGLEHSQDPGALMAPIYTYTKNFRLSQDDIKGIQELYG
Description: as §1, §2

MMP-3 = target: T3, MMP-3 (Homo sapiens, UniProt P08254); test: as above; type: biochemical; conditions: read-out: MMP-inhibiting activity IC50, MMP-3
T3 construct: the BML- prefix points to Enzo Life Sciences, own knowledge BML-AK308
T3 sequence (P08254 100-272 limits assumed): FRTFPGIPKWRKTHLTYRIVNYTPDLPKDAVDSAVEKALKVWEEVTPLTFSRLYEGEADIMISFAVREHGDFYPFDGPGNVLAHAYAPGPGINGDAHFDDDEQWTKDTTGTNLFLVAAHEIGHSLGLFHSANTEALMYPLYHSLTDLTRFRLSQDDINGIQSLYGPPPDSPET
Description: as §1, §2

MMP-9 = target: T4, MMP-9 (Homo sapiens, UniProt P14780); test: as above; type: biochemical; conditions: read-out: MMP-inhibiting activity IC50, MMP-9
T4 construct: the BML- prefix points to Enzo Life Sciences, own knowledge BML-AK308
T4 sequence (P14780 107-444 limits assumed): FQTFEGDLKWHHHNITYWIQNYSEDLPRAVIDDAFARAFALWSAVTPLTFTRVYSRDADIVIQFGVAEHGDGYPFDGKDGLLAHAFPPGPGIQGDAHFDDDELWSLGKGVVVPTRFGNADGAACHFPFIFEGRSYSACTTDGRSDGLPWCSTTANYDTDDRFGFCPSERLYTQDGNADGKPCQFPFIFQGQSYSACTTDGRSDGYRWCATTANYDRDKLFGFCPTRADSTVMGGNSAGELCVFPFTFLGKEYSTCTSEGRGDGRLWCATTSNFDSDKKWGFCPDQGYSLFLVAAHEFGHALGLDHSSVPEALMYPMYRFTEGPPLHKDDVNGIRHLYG
Description: as §1, §2

U-251 MG = test: Cytotoxicity, MTT test; type: cell-based; conditions: Homo sapiens, 72 h of exposure
Description: (§3) Cell culture. A-172 (human glioblastoma cells), HepG2 (human hepatocellular carcinoma cells), M-HeLa (human cervical adenocarcinoma cells, M subclone), Vero (African green monkey kidney epithelial cells), and FetMSC (human embryonic mesenchymal stem cells) were purchased from the Russian Collection of Cell Cultures of Vertebrates (Institute of Cytology RAS, St. Petersburg, Russia). The U-251 MG cell line (human glioblastoma-astrocytoma) was purchased from the European Collection of Authenticated Cell Cultures (Salisbury, UK). All cells were grown at 37 °C in an atmosphere of 5% CO2. A-172 and Vero cells were cultured in DMEM medium (PanEco, Moscow, Russia). HepG2, HeLa, and U-251 MG cells were cultured in EMEM medium (PanEco). FetMSC cells were cultured in F12/DMEM medium (PanEco). All incubation media were supplemented with 10% fetal calf serum (BioWest, Nuaillé, France), 50 U/mL penicillin, and […] streptomycin (PanEco). Additionally, media for HeLa, HepG2, and U-251 MG cells were supplemented with 2 mM glutamine (PanEco) and 1% essential amino acids (PanEco), media for A-172 and Vero cells were supplemented with 4 mM glutamine, and the medium for FetMSC cells was supplemented with 3 mM glutamine. The medium for U-251 MG cells was additionally supplemented with 1 mM sodium pyruvate (PanEco).
(§4) Cytotoxicity studies. The cytotoxicity of the compounds was assessed using the MTT test. Cells were seeded into 96-well plates at varying concentrations of 5 × 10^4 cells/mL (A-172, Vero and HeLa), 7 × 10^4 cells/mL (HepG2 and U-251 MG), and 10 × 10^4 cells/mL (FetMSC). The studied compounds were added to the incubation medium 24 h after seeding at concentrations ranging from 7.8 μM to 500 μM. All compounds were dissolved in DMSO and diluted with the incubation medium to their final concentrations just before use. The incubation medium in wells was aspirated and replaced with medium containing the studied compounds. The final concentration of DMSO in all samples was 0.1%. Control samples were treated with 0.1% DMSO. After 72 h of exposure, 3-(4,5-dimethylthiazol-2-yl)-2,5-diphenyl-2H-tetrazolium bromide (MTT) (Dia-M, Moscow, Russia) was added to the incubation medium at a concentration of 0.5 mg/mL. The resulting MTT-formazan crystals were dissolved in DMSO. The optical density was measured at 570 nm with a background wavelength of 620 nm using a Spark 10M plate reader. IC50 values were determined using a median effect analysis from the dose–effect relationships.

A-172 = test: Cytotoxicity, MTT test; type: cell-based, human
Description: as §3, §4

FetMSC = test: Cytotoxicity, MTT test; type: cell-based, human; conditions: Homo sapiens; 72 h of exposure, MTT
Description: as §3, §4

HeLa = test: Cytotoxicity, MTT test; type: cell-based, human; conditions: 72 h of exposure
Description: as §3, §4

HepG2 = test: Cytotoxicity, MTT test; type: cell-based, human
Description: as §3, §4

Vero = test: Cytotoxicity, MTT test; type: cell-based, African green monkey; conditions: 72 h of exposure
Description: as §3, §4

[3] = Cytotoxicity, MTT test, statements on all cell lines studied; type: cell-based; conditions: human, African green monkey, 72 h of exposure, summary over cell lines, read-out: cytotoxicity IC50, cells in general
Description: as §3, §4

B16 melanoma [4] = test: Antitumor activity in vivo, tumor growth; set-up: species or system mouse; conditions: BDF1 mice, i.p., CP 100 mg/kg days 2, 7, cPt 4 mg/kg days 2–9, 4 300 mg/kg days 2–9
Description: (§5) Antitumor activity in vivo. The B16 mouse melanoma was used as a tumor model. The B16 melanoma tumor strain was induced in male BDF1 mice by subcutaneous inoculation of 0.2–0.5 mL of a suspension of tumor tissue in medium 199 at intervals of 12–16 days. For the experiments, BDF1 mice were inoculated with 0.3 mL of a suspension of tumor tissue diluted in a 0.9% NaCl solution at a ratio of 1:5 subcutaneously on the right side.
(§6) Compound 4 was dissolved in a 0.9% NaCl solution with 1% DMSO. […] Control animals were injected intraperitoneally with 1% DMSO in saline (0.9% NaCl) in the same volumes as the test compounds.
Tumor growth was monitored on days 0, 6, 8, 10, 13, 15, 17, and 20 by measuring the tumor size with a digital caliper. The mean tumor diameter was calculated using the formula:D = 3√a × b × c,(2) where a, b, and c are mutually perpendicular tumor diameters.

B16 melanoma [5] = test: Antimetastatic activity in vivo, lung metastases; set-up: species or system mouse; conditions: lungs, B16 melanoma, BDF1 mice, doses as in Table 5
Description: as §5, §6
And MNMcont. are the mean number of metastases in the experimental and control groups, respectively.

[6] = tested on: co-cultured neonatal rat ventricular fibroblasts and myocytes; set-up: method as in PMID 19365278; conditions: 24 h of exposure; cited from earlier work
[7] = Homo sapiens, A 172, 72 h of exposure
[8] = Homo sapiens, HepG2, 72 h of exposure

In the case of `O=C(O)[C@@H](Cc1c[nH]c2ccccc12)NS(=O)(=O)c1ccc(-c2nnn(-c3ccccc3)n2)cc1` [MMI-166], the “cytotoxicity IC50” value [1] is given as “higher than 50 μg/mL”, the IC50 ([1]; read-out: cytotoxicity IC50) is given as over 102 µM and the “cytotoxicity IC50” value [2] is given as “higher than 100 μg/mL”. For the same molecule, the IC50 ([2]; read-out: cytotoxicity IC50) was over 205 µM.

Molecule `O=C(CCC(=O)NNC(=O)c1cccc([N+](=O)[O-])c1)NO` [Compound 2, N-hydroxy-4-[2-(3-nitrobenzoyl)hydrazinyl]-4-oxobutanamide] has an IC50 (MMP-14) of over 10 µM, an IC50 (MMP-2) of over 10 µM and an IC50 (MMP-3) of over 10 µM. The IC50 (MMP-9) was over 10 µM, the IC50 (U-251 MG) was over 500 µM and the IC50 (A-172; [7]) was over 500 µM. For the same molecule, the IC50 (FetMSC) was over 500 µM, the IC50 (HeLa; Homo sapiens, HeLa) was 185 ± 15.3 µM and the IC50 (HepG2; [8]) was 213 ± 15.3 µM. For the same molecule, the IC50 (Vero; Chlorocebus sabaeus, Vero) was over 500 µM and the IC50 at 72 h [3] was over 100 µM.

Molecule `N.N.[Cl][Pt][Cl]` [Cisplatin, cisplatin] has an IC50 (A-172; 72 h of exposure) of 8.46 ± 0.92 µM, an IC50 (HeLa) of 11.7 ± 2.41 µM and an IC50 (HepG2; 72 h of exposure) of 13.2 ± 1.62 µM. For the same molecule, the IC50 (Vero) was 10.7 ± 1.45 µM, the “Tumor Growth Inhibition, % Day 10” value (B16 melanoma [4]) was 76.47% and the “Tumor Growth Inhibition, % Day 13” value (B16 melanoma [4]) was 61.11%. The “Tumor Growth Inhibition, % Day 15” value (B16 melanoma [4]) was 52.07%, the “Tumor Growth Inhibition, % Day 17” value (B16 melanoma [4]) was 32.00% and the “Tumor Growth Inhibition, % Day 20” value (B16 melanoma [4]) was 9.54%. For the same molecule, the “% Inhibition of Metastases” value (B16 melanoma [5]) was 71.9%, the “Mean Number of Metastases per Mouse” value (B16 melanoma [5]) was 3.3 ± 2.4 and the “Metastasis Rate, %” value (B16 melanoma [5]) was 83.3%. For the same molecule, the “Number of Animals without Metastases” value (B16 melanoma [5]; of 6 animals in the group) was 1.

For `O=C(CCC(=O)NNC(=O)c1ccccc1[N+](=O)[O-])NO` [Compound 1, N-hydroxy-4-[2-(2-nitrobenzoyl)hydrazinyl]-4-oxobutanamide], the IC50 (MMP-14) was over 10 µM, the IC50 (MMP-2) was over 10 µM and the IC50 (MMP-3) was over 10 µM. The IC50 (MMP-9) was over 10 µM, the IC50 (U-251 MG) was over 500 µM and the IC50 (A-172; [7]) was over 500 µM. It also gave an IC50 (FetMSC) of over 500 µM, an IC50 (HeLa; Homo sapiens, HeLa) of 377 ± 25.2 µM and an IC50 (HepG2; [8]) of 393 ± 26.2 µM. For the same molecule, the IC50 (Vero; Chlorocebus sabaeus, Vero) was over 500 µM and the IC50 at 72 h [3] was over 100 µM.

In the case of `CC(C)[C@H](NS(=O)(=O)c1ccc(-c2ccc(Br)cc2)cc1)C(=O)O` [PD166793], the “concentrations toxic to cells” value [6] is listed as “above 100 μM”.
